According to patent US20230257385A1, “SALT AND SOLID FORMS OF TABERNANTHALOG” (priority 2021, published 2023):
Entries after “also recorded” stand apart in the source; their conditions may differ. Counter-ions that a name gives are not always drawn.

Legend:
[1] = Stability panel of salts, open vial / double-bagged vial, t=5 d and 10 d; type: physicochemical; settings: storage conditions not given
From the text: FIG. 797 depicts the overlay of, from top to bottom, XRPD of Experiment 1-Sample A2 (Form A), Experiment 10-Sample A1 (5 days, open vial Pattern #2), Experiment 10-Sample A2 (10 days, open vial, Pattern #2), Experiment 10-Sample B1 (5 days, double-bagged vial, Form A) and Experiment 10-Sample B2 (10 days, double-bagged vial, Pattern #2).

[2] = Solubility determinations in SIF buffers FaSSIF, FeSSIF, FaSSGF (Example 8, Experiment 5); settings: for solubility at 24 h: 37 °C, thermodynamic from solid; for fate of the suspended phase in FaSSGF (XRPD, 1H NMR): up to 24 h
How it was run: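 Suspensions in FaSSIF, FeSSIF or FaSSGF held at 37° C for 24 h, sampled at set time points and centrifuged. Pellets checked by XRPD, wet and dried, for form change.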

[3] = Qualitative solubility screen of Tabernanthalog sorbate salt (Example 10, Experiment 2); type: physicochemical
Protocol: The qualitative solubility screen was carried out to determine the range of solvents incorporated into future suspension equilibration panels. Products that crystallised were centrifuged and analysed as wet pellet by XRPD, dried under reduced pressure and re-analysed by XRPD, with selected samples further analysed by TGA and ^1H NMR spectroscopy.
If insoluble at 5 vol, the solvent quantity was increased to 10 vol, 15 vol and 20 vol of the respective solvent. The suspensions that occurred upon cooling down were centrifuged and the solvent wet pellets were analysed by XRPD.
The insoluble suspensions were additionally worked up for XRPD analysis. The resultant powder patterns were subsequently cross-referenced against the input supplied material.

[4] = Acetone/Water (5% v/v, 0.5 aw), 5 vol

COc1ccc2c3c([nH]c2c1)CCN(C)CC3 [tabernanthalog sorbate salt]
CP after stability storage ([1]; end value (minimal reduction in CP)): 99.70 % area | CP before stability storage ([1]; starting value): 99.76 % area | Solubility in SIF buffers: FeSSIF ([2]; 37° C. up to 1 h): Insoluble | Solubility in SIF buffers: FaSSGF ([2]; 37° C. up to 24 h): Insoluble | solubility at 24 h ([2]; pH 5, fessif): > 30 mg/mL | solubility at 24 h ([2]; pH 6.5, fassif): > 30 mg/mL | solubility in the SIF buffers (in words) ([2]; FaSSIF, FeSSIF, FaSSGF): highly soluble in the SIF buffers examined; also recorded: highly soluble in the SIF buffers used, apart from FaSSGF | behaviour at 30 mg/ml in SIF buffers ([2]; FaSSIF, FeSSIF, FaSSGF, 37° C., 24 h): only remained suspended in FaSSGF | solubility in the SIF buffers (in words) ([2]; FaSSIF, FeSSIF, FaSSGF, listed as Tabernanthalog sorbate salt (Form A)): readily soluble in FaSSIF and FeSSIF during 24 h | Tabernanthalog RRT = 1.00 (trended HPLC data, chemical purity) ([2]; tabernanthalog sorbate salt, input before FaSSGF): 99.41 | fate of the suspended phase in FaSSGF (XRPD, 1H NMR) ([2]; 37° C.): supported disproportionation | fate of the suspended phase in FaSSGF (XRPD, 1H NMR) ([2]; 37° C., listed as Tabernanthalog sorbate salt (Form A)): only exhibited disproportionation after 24 h in FaSSGF | Solid on cooling ([3]; 2-Propanol, 5 vol): ✓ | Solution at reflux ([3]; 2-Propanol, 5 vol): ✓ | Solid on cooling ([3]; 2-Propanol, 10 vol): ✓ | Solution at reflux ([3]; 2-Propanol, 10 vol): ✓ | Solid on cooling ([3]; 2-Propanol, 15 vol): ✓ | Solution at reflux ([3]; 2-Propanol, 15 vol): ✓ | Solid on cooling ([3]; 2-Propanol, 20 vol): ✓ | Solution at reflux ([3]; 2-Propanol, 20 vol): ✓ | Solid on cooling ([3]; Acetone, 10 vol): ✓ | Solution at reflux ([3]; Acetone, 10 vol): ✓ | Solid on cooling ([3]; Acetone, 15 vol): ✓ | Solution at reflux ([3]; Acetone, 15 vol): ✓ | Solid on cooling ([3]; Acetone, 20 vol): ✓ | Solution at reflux ([3]; Acetone, 20 vol): ✓ | Solid on cooling [3, 4]: ✓ | Solution at 40° C. [3, 4]: ✓ | Solid on cooling ([3]; Chlorobenzene, 5 vol): ✓ | Solution at reflux ([3]; Chlorobenzene, 5 vol): ✓ | Solid on cooling ([3]; Chlorobenzene, 10 vol): ✓ | Solution at reflux ([3]; Chlorobenzene, 10 vol): ✓ | Solid on cooling ([3]; Chlorobenzene, 15 vol): ✓ | Solution at reflux ([3]; Chlorobenzene, 15 vol): ✓ | Solid on cooling ([3]; Chlorobenzene, 20 vol): ✓ | Solution at 20° C. ([3]; Chlorobenzene, 20 vol): × | Solution at reflux ([3]; Chlorobenzene, 20 vol): ✓ | Solid on cooling ([3]; DCM, 5 vol): ✓ | Solution at reflux ([3]; DCM, 5 vol): ✓ | Solid on cooling ([3]; DCM, 10 vol): ✓ | Solution at 40° C. ([3]; DCM, 10 vol): ✓ | Solution at 40° C. ([3]; DCM, 15 vol): ✓ | Solid on cooling ([3]; EtOAc, 5 vol): ✓ | Solution at reflux ([3]; EtOAc, 5 vol): ✓ | Solid on cooling ([3]; EtOAc, 10 vol): ✓ | Solution at reflux ([3]; EtOAc, 10 vol): ✓ | Solid on cooling ([3]; EtOAc, 15 vol): ✓ | Solution at reflux ([3]; EtOAc, 15 vol): ✓ | Solid on cooling ([3]; EtOAc, 20 vol): ✓ | Solution at reflux ([3]; EtOAc, 20 vol): ✓ | Solid on cooling ([3]; EtOH, 5 vol): ✓ | Solution at reflux ([3]; EtOH, 5 vol): ✓ | Solid on cooling ([3]; EtOH, 10 vol): ✓ | Solution at 40° C. ([3]; EtOH, 10 vol): ✓ | Solution at 40° C. ([3]; EtOH, 15 vol): ✓ | Solution at 20° C. ([3]; Ethanol/Water (15% v/v, 0.5 aw), 5 vol): ✓ | Solid on cooling ([3]; Ethyl formate, 5 vol): ✓ | Solution at reflux ([3]; Ethyl formate, 5 vol): ✓ | Solid on cooling ([3]; Ethyl formate, 10 vol): ✓ | Solution at reflux ([3]; Ethyl formate, 10 vol): ✓ | Solid on cooling ([3]; Ethyl formate, 15 vol): ✓ | Solution at reflux ([3]; Ethyl formate, 15 vol): ✓ | Solid on cooling ([3]; Ethyl formate, 20 vol): ✓ | Solution at reflux ([3]; Ethyl formate, 20 vol): ✓ | Solution at reflux ([3]; Heptane, 10 vol): Oiled | Solution at 40° C. ([3]; Isopropanol/Water (12%, v/v, 0.5 aw), 5 vol): ✓ | Solid on cooling ([3]; Isopropyl acetate, 5 vol): ✓ | Solution at reflux ([3]; Isopropyl acetate, 5 vol): ✓ | Solid on cooling ([3]; Isopropyl acetate, 10 vol): ✓ | Solution at reflux ([3]; Isopropyl acetate, 10 vol): ✓ | Solid on cooling ([3]; Isopropyl acetate, 15 vol): ✓ | Solution at reflux ([3]; Isopropyl acetate, 15 vol): ✓ | Solid on cooling ([3]; Isopropyl acetate, 20 vol): ✓ | Solution at reflux ([3]; Isopropyl acetate, 20 vol): ✓ | Solid on cooling ([3]; MEK, 5 vol): ✓ | Solution at reflux ([3]; MEK, 5 vol): ✓ | Solid on cooling ([3]; MEK, 10 vol): ✓ | Solution at reflux ([3]; MEK, 10 vol): ✓ | Solid on cooling ([3]; MEK, 15 vol): ✓ | Solution at reflux ([3]; MEK, 15 vol): ✓ | Solid on cooling ([3]; MEK, 20 vol): ✓ | Solution at 40° C. ([3]; MEK, 20 vol): ✓ | Solid on cooling ([3]; MeCN, 5 vol): ✓ | Solution at reflux ([3]; MeCN, 5 vol): ✓ | Solid on cooling ([3]; MeCN, 10 vol): ✓ | Solution at reflux ([3]; MeCN, 10 vol): ✓ | Solid on cooling ([3]; MeCN, 15 vol): ✓ | Solution at reflux ([3]; MeCN, 15 vol): ✓ | Solid on cooling ([3]; MeCN, 20 vol): ✓ | Solution at reflux ([3]; MeCN, 20 vol): ✓ | Solution at 20° C. ([3]; MeOH, 5 vol): ✓ | Solid on cooling ([3]; MeTHF, 5 vol): ✓ | Solution at reflux ([3]; MeTHF, 5 vol): ✓ | Solid on cooling ([3]; MeTHF, 10 vol): ✓ | Solution at reflux ([3]; MeTHF, 10 vol): ✓ | Solid on cooling ([3]; MeTHF, 15 vol): ✓ | Solution at reflux ([3]; MeTHF, 15 vol): ✓ | Solid on cooling ([3]; MeTHF, 20 vol): ✓ | Solution at reflux ([3]; MeTHF, 20 vol): ✓ | Solid on cooling ([3]; Methyl acetate, 10 vol): ✓ | Solution at reflux ([3]; Methyl acetate, 10 vol): ✓ | Solid on cooling ([3]; Methyl acetate, 15 vol): ✓ | Solution at reflux ([3]; Methyl acetate, 15 vol): ✓ | Solid on cooling ([3]; Methyl acetate, 20 vol): ✓ | Solution at reflux ([3]; Methyl acetate, 20 vol): ✓ | Solid on cooling ([3]; Nitromethane, 5 vol): ✓ | Solution at reflux ([3]; Nitromethane, 5 vol): ✓ | Solid on cooling ([3]; Nitromethane, 10 vol): ✓ | Solution at reflux ([3]; Nitromethane, 10 vol): ✓ | Solid on cooling ([3]; Nitromethane, 15 vol): ✓ | Solution at reflux ([3]; Nitromethane, 15 vol): ✓ | Solid on cooling ([3]; Nitromethane, 20 vol): ✓ | Solution at reflux ([3]; Nitromethane, 20 vol): ✓ | Solid on cooling ([3]; THF, 5 vol): ✓ | Solution at reflux ([3]; THF, 5 vol): ✓ | Solution at reflux ([3]; THF, 10 vol): ✓ | Solid on cooling ([3]; Toluene, 5 vol): ✓ | Solution at reflux ([3]; Toluene, 5 vol): ✓ | Solid on cooling ([3]; Toluene, 10 vol): ✓ | Solution at reflux ([3]; Toluene, 10 vol): ✓ | Solid on cooling ([3]; Toluene, 15 vol): ✓ | Solution at reflux ([3]; Toluene, 15 vol): ✓ | Solid on cooling ([3]; Toluene, 20 vol): ✓ | Solution at reflux ([3]; Toluene, 20 vol): ✓ | Solid on cooling ([3]; Water, 5 vol): ✓ | Solution at reflux ([3]; Water, 5 vol): ✓ | Solution at reflux ([3]; Water, 10 vol): ✓
